Numbers after ± are expanded uncertainties.
Conditions: Liquid, Vibrating tube method

CC(C)CO [2-methyl-1-propanol]
Conditions | mass density [kg/m3]
323.15 K, 32903 kPa | 805.081 ± 0.86
323.15 K, 33102 kPa | 805.154 ± 0.87
323.15 K, 33950 kPa | 805.707 ± 0.87
323.15 K, 34958 kPa | 806.425 ± 0.87
323.15 K, 37883 kPa | 808.369 ± 0.88
323.15 K, 39891 kPa | 809.68 ± 0.88
323.15 K, 42065 kPa | 811.076 ± 0.89
323.15 K, 44846 kPa | 812.852 ± 0.89
323.15 K, 49935 kPa | 815.968 ± 0.91
323.15 K, 52064 kPa | 817.249 ± 0.91
323.15 K, 54897 kPa | 818.944 ± 0.92
323.15 K, 57818 kPa | 820.634 ± 0.93
323.15 K, 59855 kPa | 821.787 ± 0.93
323.15 K, 61856 kPa | 822.928 ± 0.94
323.15 K, 64838 kPa | 824.6 ± 0.94
323.15 K, 65957 kPa | 825.209 ± 0.94
323.16 K, 1117.8 kPa | 779.897 ± 0.81
323.16 K, 47886 kPa | 814.721 ± 0.9
328.15 K, 96.5 kPa | 774.907 ± 0.81
328.15 K, 395.8 kPa | 775.157 ± 0.81
328.15 K, 904.1 kPa | 775.603 ± 0.81
328.15 K, 1030.6 kPa | 775.74 ± 0.81
328.15 K, 2999.3 kPa | 777.646 ± 0.81
328.15 K, 5042 kPa | 779.515 ± 0.81
328.15 K, 10121 kPa | 784.077 ± 0.82
328.15 K, 11905 kPa | 785.621 ± 0.82
328.15 K, 24953 kPa | 795.929 ± 0.85
328.15 K, 27874 kPa | 798.098 ± 0.86
328.15 K, 29949 kPa | 799.588 ± 0.86
328.15 K, 31948 kPa | 800.996 ± 0.86
328.15 K, 33061 kPa | 801.681 ± 0.87
328.15 K, 34111 kPa | 802.415 ± 0.87
328.15 K, 34984 kPa | 803.007 ± 0.87
328.15 K, 37913 kPa | 805.001 ± 0.88
328.15 K, 41958 kPa | 807.674 ± 0.89
328.15 K, 44806 kPa | 809.5 ± 0.9
328.15 K, 55150 kPa | 815.995 ± 0.92
328.15 K, 58100 kPa | 817.75 ± 0.93
328.15 K, 60045 kPa | 818.881 ± 0.93
328.15 K, 62082 kPa | 820.048 ± 0.94
328.15 K, 66095 kPa | 822.334 ± 0.95
328.16 K, 515 kPa | 775.262 ± 0.81
328.16 K, 2069.7 kPa | 776.794 ± 0.81
328.16 K, 6936.7 kPa | 781.257 ± 0.82
328.16 K, 8874.2 kPa | 782.985 ± 0.82
328.16 K, 14954 kPa | 788.149 ± 0.83
328.16 K, 17891 kPa | 790.513 ± 0.83
328.16 K, 20040 kPa | 792.21 ± 0.84
328.16 K, 22054 kPa | 793.773 ± 0.84
328.16 K, 33018 kPa | 801.745 ± 0.87
328.16 K, 39966 kPa | 806.346 ± 0.88
328.16 K, 47820 kPa | 811.414 ± 0.9
328.16 K, 49817 kPa | 812.637 ± 0.91
328.16 K, 52099 kPa | 814.145 ± 0.91
328.16 K, 64955 kPa | 821.692 ± 0.95
333.15 K, 95.7 kPa | 770.629 ± 0.81
333.15 K, 913.6 kPa | 771.467 ± 0.81
333.15 K, 6965.6 kPa | 777.259 ± 0.82
333.15 K, 8937.3 kPa | 779.076 ± 0.82
333.15 K, 9995.1 kPa | 780.005 ± 0.82
333.15 K, 11970 kPa | 781.72 ± 0.82
333.15 K, 14915 kPa | 784.255 ± 0.83
333.15 K, 22033 kPa | 790.027 ± 0.84
333.15 K, 29996 kPa | 796.045 ± 0.86
333.15 K, 31986 kPa | 797.49 ± 0.87
333.15 K, 32928 kPa | 798.124 ± 0.87
333.15 K, 41792 kPa | 804.162 ± 0.89
333.15 K, 47830 kPa | 808.087 ± 0.91
333.15 K, 49895 kPa | 809.38 ± 0.91
333.15 K, 51876 kPa | 810.61 ± 0.92
333.15 K, 54830 kPa | 812.44 ± 0.92
333.15 K, 58116 kPa | 814.429 ± 0.93
333.15 K, 59975 kPa | 815.509 ± 0.94
333.15 K, 61974 kPa | 816.676 ± 0.94
333.15 K, 65057 kPa | 818.467 ± 0.95
333.15 K, 66042 kPa | 819.039 ± 0.95
333.16 K, 295.9 kPa | 770.818 ± 0.81
333.16 K, 574.5 kPa | 771.11 ± 0.81
333.16 K, 1069.5 kPa | 771.621 ± 0.81
333.16 K, 2110.6 kPa | 772.649 ± 0.81
333.16 K, 3100 kPa | 773.622 ± 0.81
333.16 K, 5034 kPa | 775.464 ± 0.81
333.16 K, 17954 kPa | 786.777 ± 0.84
333.16 K, 19985 kPa | 788.397 ± 0.84
333.16 K, 24923 kPa | 792.261 ± 0.85
333.16 K, 27922 kPa | 794.514 ± 0.86
333.16 K, 33031 kPa | 798.137 ± 0.87
333.16 K, 34001 kPa | 798.837 ± 0.87
333.16 K, 35030 kPa | 799.567 ± 0.87
333.16 K, 37925 kPa | 801.558 ± 0.88
333.16 K, 39862 kPa | 802.861 ± 0.89
333.16 K, 44782 kPa | 806.126 ± 0.9
338.15 K, 72.5 kPa | 765.803 ± 0.81
338.15 K, 267.1 kPa | 766.009 ± 0.81
338.15 K, 496.5 kPa | 766.255 ± 0.81
338.15 K, 821.3 kPa | 766.6 ± 0.81
338.15 K, 1007.7 kPa | 766.796 ± 0.81
338.15 K, 2012.4 kPa | 767.824 ± 0.81
338.15 K, 3039.1 kPa | 768.845 ± 0.81
338.15 K, 7018.5 kPa | 772.739 ± 0.82
338.15 K, 8987.6 kPa | 774.596 ± 0.82
338.15 K, 10054 kPa | 775.578 ± 0.82
338.15 K, 18105 kPa | 782.627 ± 0.84
338.15 K, 22120 kPa | 785.947 ± 0.85
338.15 K, 28029 kPa | 790.565 ± 0.86
338.15 K, 32010 kPa | 793.527 ± 0.87
338.15 K, 32776 kPa | 794.103 ± 0.87
338.15 K, 32995 kPa | 794.184 ± 0.87
338.15 K, 33922 kPa | 794.869 ± 0.87
338.15 K, 38056 kPa | 797.798 ± 0.88
338.15 K, 42127 kPa | 800.629 ± 0.9
338.15 K, 48090 kPa | 804.572 ± 0.91
338.15 K, 50121 kPa | 805.906 ± 0.92
338.15 K, 52094 kPa | 807.168 ± 0.92
338.15 K, 55116 kPa | 809.055 ± 0.93
338.15 K, 58010 kPa | 810.837 ± 0.94
338.15 K, 60191 kPa | 812.149 ± 0.94
338.15 K, 62244 kPa | 813.373 ± 0.95
338.15 K, 65243 kPa | 815.143 ± 0.96
338.15 K, 65986 kPa | 815.583 ± 0.96
338.15 K, 66355 kPa | 815.805 ± 0.96
338.16 K, 5091.1 kPa | 770.879 ± 0.81
338.16 K, 12131 kPa | 777.462 ± 0.83
338.16 K, 15171 kPa | 780.113 ± 0.83
338.16 K, 20167 kPa | 784.349 ± 0.84
338.16 K, 25290 kPa | 788.465 ± 0.85
338.16 K, 30041 kPa | 792.069 ± 0.86
338.16 K, 35102 kPa | 795.7 ± 0.88
338.16 K, 39987 kPa | 799.156 ± 0.89
338.16 K, 45109 kPa | 802.623 ± 0.9
343.15 K, 55.6 kPa | 761.239 ± 0.81
343.15 K, 101.8 kPa | 761.279 ± 0.81
343.15 K, 277.3 kPa | 761.484 ± 0.81
343.15 K, 487.7 kPa | 761.699 ± 0.81
343.15 K, 881.6 kPa | 762.13 ± 0.81
343.15 K, 1037 kPa | 762.294 ± 0.81
343.15 K, 1941.4 kPa | 763.263 ± 0.81
343.15 K, 3000.3 kPa | 764.362 ± 0.81
343.15 K, 4957 kPa | 766.378 ± 0.81
343.15 K, 6956.1 kPa | 768.377 ± 0.82
343.15 K, 8969.5 kPa | 770.304 ± 0.82
343.15 K, 10003 kPa | 771.264 ± 0.82
343.15 K, 11997 kPa | 773.149 ± 0.83
343.15 K, 14895 kPa | 775.758 ± 0.83
343.15 K, 17840 kPa | 778.358 ± 0.84
343.15 K, 20135 kPa | 780.417 ± 0.84
343.15 K, 21925 kPa | 781.908 ± 0.85
343.15 K, 24920 kPa | 784.349 ± 0.85
343.15 K, 27949 kPa | 786.755 ± 0.86
343.15 K, 29863 kPa | 788.238 ± 0.87
343.15 K, 31874 kPa | 789.777 ± 0.87
343.15 K, 32927 kPa | 790.544 ± 0.87
343.15 K, 32981 kPa | 790.602 ± 0.87
343.15 K, 34026 kPa | 791.305 ± 0.88
343.15 K, 35028 kPa | 792.011 ± 0.88
343.15 K, 38080 kPa | 794.257 ± 0.89
343.15 K, 39908 kPa | 795.53 ± 0.89
343.15 K, 41973 kPa | 796.98 ± 0.9
343.15 K, 44972 kPa | 799.034 ± 0.91
343.15 K, 47997 kPa | 801.072 ± 0.91

Source: the NIST ThermoML archive (doi:10.1021/je5010214)
